Results taken from patent US11723890B2, “Methods of treatment using an mTORC1 modulator” (Navitor Pharmaceuticals, Inc., priority 2019, dated 2023).

Columns and labels:
[1] = 14-day Q3D oral toxicology study in cynomolgus monkeys; conditions: cynomolgus monkey, in vivo; cynomolgus monkeys; 160, 500 or 2000 mg/kg PO Q3D for 14 days (5 doses); read-out: no-observed-adverse-effect level (NOAEL)
Protocol: (§1) In cynomolgus monkeys administered 160, 500, or 2000 mg/kg PO Q3D for 14 days (5 doses total), the NOAEL was 160 mg/kg.
(§2) Precautions related to cardiovascular safety in this clinical study included frequent measurement of vital signs (e.g., blood pressure, pulse, and body temperature) and frequent electrocardiograms (ECGs).

[2] = tested on: cynomolgus monkey; experiment: as above; conditions: in vivo, po, 2000 mg/kg
Protocol: as §1, §2

[3] = tested on: rodent models of stress-induced depressive behavior; experiment: Preclinical rodent models of stress-induced depressive behavior; format: in vivo; conditions: head-to-head with ketamine
Source text: (§3) Compound A [(S)-2-amino-5,5-difluoro-4,4-dimethylpentanoic acid] is a novel, orally bioavailable, specific, small molecule that activates mTORC1 pathway signaling in the brain, including those centers responsible for mood.

[4] = tested on: nonhuman primate model of anxiolytic/depressive behavioral responses; experiment: Nonhuman primate model of anxiolytic/depressive behavioral responses; format: in vivo; conditions: versus ketamine
Source text: as §3

[5] = tested on: mTORC1; experiment: mTORC1 downstream signaling and synaptic changes in medial pre-frontal cortex of rats; format: in vivo, rat; conditions: layer V pyramidal neurons
Source text: as §3

[6] = Example 2: single-dose pharmacokinetics in plasma and CSF; format: in vivo, human; conditions: healthy males, single oral 2400 mg
Protocol: Pharmacokinetics Endpoints: The following PK parameters for compound A were determined in serum and CSF, as appropriate: • Cmax: Maximum compound A concentration determined directly from the concentration-time profile • Tmax: Time of maximum compound A concentration determined directly from the concentration-time profile • AUClast: Area under the concentration-time curve from pre-dose (time 0) to the time of the last quantifiable concentration (tlast) calculated using the linear-log trapezoidal rule • AUCinf: Area under the concentration-time curve from pre-dose (time 0) extrapolated to infinite time (AUClast+Clast/λz) calculated using the linear-log trapezoidal rule • AUC% extrap: Percentage of AUCinf that is due to extrapolation beyond tlast • λz: The terminal elimination rate constant determined by selection of at least 3 data points on the terminal phase of the concentration-time curve. • t1/2: Terminal elimination half-life calculated as: ln 2/λz • CL/F: Apparent body clearance calculated as: Dose/AUCinf • Vz/F: Apparent volume of distribution calculated as: Dose/(AUCinf*λz) • MRT: Mean residence time (of the unchanged drug in the systemic circulation) as: AUMC/AUC • RA (AUC): Accumulation CSF/plasma ratio calculated as the ratios of the AUCinf,ss at steady state and AUCτ,sd after single dosing calculated as: AUCτ,ss/AUCτ,sd • RA (Cmax): Accumulation CSF/plasma ratio calculated as ratio of Cmax,ss at steady state and Cmax,sd after single dosing calculated as: Cmax,ss/Cmax,sd • CSF compound A concentrations over time and the ratio compared with time-matched plasma concentrations were also evaluated Overall Study Design: […]
(§4) Pharmacokinetic, Metabolomic, and Proteomic Variables: Blood and CSF samples for the PK, metabolomics, and proteomic analysis of compound A were collected at various time points and were processed and analyzed by a validated method for determining concentrations of compound A.

[7] = tested on: BDNF and BDNF receptor (NTRK2); experiment: Example 2: CSF BDNF and BDNF receptor (NTRK2) fragment levels; format: in vivo, human; conditions: healthy males; single oral 2400 mg; FIGS. 9 and 10
Source text: Exploratory Objective(s): The exploratory objectives of this study were as follows using CSF and plasma samples collected over the same time frame as the PK samples: • conducted unbiased metabolomic analysis using validated methods as described: https://www.metabolon.com/what-we-do/our-technology. • conducted unbiased proteomic analysis using validated methods as described: https://www.biognosys.com/technology. Study Endpoints:
as §4

[8] = tested on: healthy volunteers; experiment: Example 4: blinded multiple ascending dose safety and tolerability study; format: in vivo, human; conditions: Cohort 1 (800 mg) and Cohort 2 (1600 mg) once daily for 7 days, compound A or placebo (6:2), preliminary
Protocol: Navitor Pharmaceuticals, Inc. (Navitor) is currently conducting a study to assess the safety, tolerability, and PK of multiple ascending doses of compound A (400 mg, 800 mg, 1600 mg, 2400 mg, and potentially 3000 mg) versus matched placebo in healthy volunteers. This study also includes an assessment of CSF and clinical biomarkers, as well as a cognition test.
The study is planned for 4 cohorts and 1 additional optional cohort. Up to approximately 40 healthy volunteers will be randomly assigned to double-blind treatment. In the initial 4 cohorts, eight (8) subjects will be randomized (3:1; compound A:placebo) in each of the four dosage-level cohorts (800 mg, 1600 mg, 2400 mg, and 400 mg) administered as an oral solution. Within each cohort, six subjects will be randomized to receive compound A and two subjects will be randomized to receive placebo. Each subject randomized will receive compound A or placebo once daily for 7 days. Subjects will dose in the morning and will dose each day at the same time. For cohort 3 (2400 mg), each subject will return to the unit after a minimum 5-day washout to receive an additional single dose of compound A or placebo under fed conditions in Period 2. Assessments of safety, tolerability, and PK as well as exploratory biomarker and clinical measures will occur.
Cohort 1 (800 mg) and Cohort 2 (1600 mg) have been completed. […]

For `CC(C)(C[C@H](N)C(=O)O)C(F)F` [Compound A, (S)-2-amino-5,5-difluoro-4,4-dimethylpentanoic acid], the NOAEL at 14 days [1] was 160 mg/kg, the “adverse effects at 2000 mg/kg” value [2] was “dehydration in one animal, likely secondary to vomiting, and increased aspartate aminotransferase (AST) in one animal” and the “adverse effects in rodent models” value [3] was “without producing significant adverse effects”. The antidepressant effects [3] was “rapid antidepressant effects comparable to those of ketamine”, the pharmacological activity [4] was “comparable to that of ketamine” and the “mTORC1 downstream signaling, synaptic protein expression, synaptic arborization” value [5] was “increase in mTORC1 downstream signaling, synaptic protein expression (e.g., GluR1 and synapsin), and synaptic arborization”. The “uptake into circulation and brain exposure” value [6] was “rapid uptake of compound A into circulation with rapid brain exposure”, the “human CSF levels” value ([6]; FIG. 8) was “consistent with rodent levels at the effective dose” and the half-life ([6]; male, human, in vivo) was 10 to 13 h. For the same molecule, the “CSF BDNF and BDNF receptor (NTRK2) fragment levels” value [7] was “rapid release of BDNF and receptor degradation”, the “labs, vital signs or ECG” value [8] was “No clinically significant abnormalities were observed” and the “severity of AEs” value [8] was “mild”.
